In US20070066616A1, “Inhibitors for extracellular signal-regulated kinase docking domains and uses therefor” (priority 2005, published 2007):
Entries after “also recorded” stand apart in the source; their conditions may differ.

Experiments:
[1] = tested on: HeLa, A549, or SUM-159 cells; assay: Colony formation assay, screen of test compounds (FIG. 7A); format: cell-based, human; parameters: dose or concentration left out as unconfirmed; details: FIG. 7A screen as printed
Experimental: HeLa, A549, or SUM-159 cells were plated at a low density of ˜200-400 cells per well in the absence or presence of putative ERK docking domain inhibitors. Cell colonies were stained with crystal violet and counted after 6-10 days. In FIG. 7A cells were grown on 10 cm plates in the absence (−) or presence of 100 mM of compound 67, 36, 68, 81, or 76. Colony formation dose response in the presence of the indicated concentrations of compound 76 or 81 for Hela cells […] (FIG. 7B), A549 cells (50 mM) (FIG. 7C), or SUM-159 cells (50 mM) (FIG. 7D).
(§1) Trypsinized cells were plated on 12 or 24 well plates at low densities (200-400 cells per well) in the absence (DMSO only) or presence of test compounds. In additional experiments, cells were first allowed to adhere to the culture dishes for 16 hours prior to treatment with test compounds. The treated cells received a single dose of the test compounds at the beginning of the experiments. The control and treated cells were grown for 8-14 days to allow the formation of colonies. Cells then were fixed for 10 minutes in 4% paraformaldehyde and stained with 0.2% crystal violet (in 20% methanol) for 1-2 minutes. Following several washes with distilled water, the colonies (containing at least 40 cells) were counted. Each individual experiment was repeated on at least 3 separate occasions.
The effects of the active compounds on cell proliferation and survival were tested using a colony formation assay.

[2] = tested on: ERK specific phosphorylation of Rsk-1 and/or Elk-1; assay: ERK substrate phosphorylation assays (Rsk-1 and/or Elk-1); format: cell-based, human
Experimental: (§2) Prior to harvesting, cells were pre-incubated with the test compounds for 15-20 minutes and then stimulated with EGF or anisomycin to activate the ERK or p38 MAP kinase pathways, respectively. […] The lysates then were diluted with an equal volume of 2X SDS-sample buffer and the proteins were separated on SDS-PAGE for immunoblot analysis. Immunoblot analysis was done as previously described (41-43).

[3] = tested on: ERK-mediated phosphorylation of Rsk-1 on Thr573; assay: ERK-mediated Rsk-1 phosphorylation (Thr573), immunoblot and densitometry in EGF-stimulated HeLa cells; format: cell-based, human; details: immunoblot
Experimental: Prior to harvesting, cells were pre-incubated with the test compounds for 15-20 minutes and then stimulated with EGF or anisomycin to activate the ERK or p38 MAP kinase pathways, respectively. Control and treated cells were washed twice with cold phosphate buffered saline (PBS, pH 7.2; Invitrogen) and proteins were collected following cell lysis with 300 μl of cold tissue lysis buffer (20 mM Tris, pH 7.4, 137 mM NaCl, 2 mM EDTA, 1% Triton X-100, 0.1% SDS, 25 mM β-glycerophosphate, 2 mM sodium pyrophosphate, 10% glycerol, 1 mM sodium orthovanadate, 1 mM phenylmethylsulfonyl fluoride (PMSF), 1 mM benzamidine), allowed to incubate on ice for about 10 minutes and then centrifuged at 20,000 (X g) to clarify the lysates of insoluble material. The lysates then were diluted with an equal volume of 2X SDS-sample buffer and the proteins were separated on SDS-PAGE for immunoblot analysis. Immunoblot analysis was done as previously described (41-43).
All compounds were subjected to assays of ERK specific phosphorylation of Rsk-1 and/or Elk-1 as examined by immunoblot analysis using phosphorylation specific antibodies. In FIG. 5A HeLa cells were cultured in 24 well plates and pretreated for 20-30 minutes with […] of the selected test compounds. The cells were stimulated with epidermal growth factor (EGF, 50 ng/ml) for 5 minutes to activate the ERK pathway. Cell lysates were collected and immunoblotted for ERK-mediated phosphorylation of Rsk-1 on Thr573. As shown, EGF treatment alone caused a robust increase in Thr573 phosphorylation on Rsk-1 in the absence of test compounds. The presence of test compounds had inhibitory effects on ERK-mediated Rsk-1 phosphorylation.
Compounds 86-98 were first tested for inhibition of ERK mediated phosphorylation of the transcription factor Elk-1, which is an important regulator of cell proliferation. Cells were treated with EGF to activate the ERK pathway and phosphorylation of Elk-1 on the ERK site at S383 was detected by immunoblot analysis (FIG. 5C). […] The effects of the test compounds were also tested with Rsk-1, another ERK substrate involved in regulating cell proliferation.

ERK2 = target: T1, ERK2 (Mus musculus, UniProt P63085); assay: Fluorescence titration (quenching of intrinsic ERK2 fluorescence); format: binding; details: fluorescence titration
T1 construct: (His)x6; made in house; host or cells: bacteria
T1 sequence (P63085 whole entry): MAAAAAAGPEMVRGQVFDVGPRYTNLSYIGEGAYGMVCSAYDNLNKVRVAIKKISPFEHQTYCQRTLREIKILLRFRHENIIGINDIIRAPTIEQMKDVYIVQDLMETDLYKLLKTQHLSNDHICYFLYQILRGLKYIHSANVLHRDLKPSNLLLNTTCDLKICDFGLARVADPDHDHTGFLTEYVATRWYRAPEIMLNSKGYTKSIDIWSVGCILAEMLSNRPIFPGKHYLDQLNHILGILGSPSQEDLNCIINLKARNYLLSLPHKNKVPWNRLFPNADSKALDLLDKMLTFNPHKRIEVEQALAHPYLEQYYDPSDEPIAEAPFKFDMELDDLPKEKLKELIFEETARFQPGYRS
Experimental: Experiments measure the changes in the intrinsic ERK2 fluorescence due to the presence of aromatic amino acids, with the indole group of tryptophan being the major fluorophore with absorption and emission maxima around 280 and 340 nanometers (nm), respectively. Fluorescence spectra were recorded with a Luminescence Spectrometer LS50 (Perkin Elmer, Boston, Mass.). For all experiments, ERK2 protein was diluted into 20 mM Tris-HCl, pH 7.5. Titrations were performed by increasing the test compound concentration while maintaining the ERK2 protein concentration at 3 μM.
The excitation wavelength was 295 nm and fluorescence was monitored from 300 to 500 nm. All reported fluorescence intensities are relative values and are not corrected for wavelength variations in detector response. Dissociation constants, KD, were determined using reciprocal plots, 1/ν vs 1/[I], where ν represents the percent occupied sites calculated assuming fluorescence quenching to be directly proportion to the percentage of occupied binding sites, [I] represents the concentration of the inhibitor compound and the slope of the curve equals the KD (48-49).
ERK2 contains three tryptophans, which have intrinsic fluorescence. Fluorescence quenching of ERK2 by the test compounds is indicative of binding interactions and potential protein conformational changes.

[4] = tested on: SUM-159 estrogen-receptor negative breast cancer cell line; assay: Cell proliferation, SUM-159 cells; format: cell-based, human
Experimental: (§3) HeLa, A549, or SUM-159 cells were plated at a low density of ˜200-400 cells per well in the absence or presence of putative ERK docking domain inhibitors. Cell colonies were stained with crystal violet and counted after 6-10 days. In FIG. 7A cells were grown on 10 cm plates in the absence (−) or presence of 100 mM of compound 67, 36, 68, 81, or 76. Colony formation dose response in the presence of the indicated concentrations of compound 76 or 81 for Hela cells (100 mM) (FIG. 7B), A549 cells (50 mM) (FIG. 7C), or SUM-159 cells (50 mM) (FIG. 7D).
as §1

[5] = tested on: A549 lung carcinoma cells; assay: Colony formation assay, A549 cells; format: cell-based, human; details: colony formation dose response (FIG. 7C)
Experimental: as §3, §1

[6] = tested on: HT1080 fibrosarcoma cells; assay: Cell proliferation, HT1080 cells; format: cell-based, human; details: data not shown
Experimental: as §1

HeLa cells = assay: Colony formation assay, HeLa cells; format: cell-based, human; details: for IC50: HeLa cells, single dose 0-100 μM, 8-10 days, at least 3 experiments
Experimental: HeLa, A549, or SUM-159 cells were plated at a low density of ˜200-400 cells per well in the absence or presence of putative ERK docking domain inhibitors. Cell colonies were stained with crystal violet and counted after 6-10 days.
as §1
HeLa cells were plated at low density and incubated with a single dose (0-100 μM) of the test compounds being tested. After 8-10 days, the resulting cell colonies were stained, photographed, and counted to estimate the IC50. The data is derived from at least 3 independent experiments.

[7] = tested on: ERK-mediated phosphorylation of Elk-1 on S383; assay: ERK-mediated Elk-1 phosphorylation (Ser383), immunoblot in EGF-stimulated HeLa cells; format: cell-based, human
Experimental: as §2
Cells were treated with EGF to activate the ERK pathway and phosphorylation of Elk-1 on the ERK site at S383 was detected by immunoblot analysis (FIG. 5C). […] The effects of the test compounds were also tested with Rsk-1, another ERK substrate involved in regulating cell proliferation.

N=C(N)Nc1nc(C2COc3ccccc3O2)cs1 (stereo not drawn) [Compound 36]
effect on colony formation / cell proliferation (in words) [1]: subtle inhibition; also recorded: little effect | activity in ERK substrate phosphorylation assays (in words) [2]: little effect | effect on ERK-mediated Rsk-1 phosphorylation (in words) [3]: little effect

COc1ccc(CN2CCNCC2)cc1 [Compound 67]
effect on colony formation / cell proliferation (in words) [1]: little effect | effect on ERK-mediated Rsk-1 phosphorylation (in words) [3]: significantly reduced | ERK2 fluorescence quenching / binding (in words) (ERK2): did not show quenching

CN(C)CCNC(=O)c1ccc(-c2ccccc2)cc1 [Compound 68]
effect on colony formation / cell proliferation (in words) [1]: little effect | effect on ERK-mediated Rsk-1 phosphorylation (in words) [3]: appeared to enhance; also recorded: enhanced

O=C(CCN1CCN(C/C=C/c2ccccc2)CC1)Nc1ccc(Cl)cc1 [Compound 81]
effect on colony formation / cell proliferation (in words) [1]: completely inhibited | inhibition of cell proliferation in SUM-159 (in words) [4]: inhibition of cell proliferation | IC50 [5]: ~15 µM | inhibition of cell proliferation in HT1080 (in words) [6]: inhibition of cell proliferation | ERK2 fluorescence quenching / binding (in words) (ERK2): quenching only occurs to a small extent at the higher concentrations

C#CCOC(=O)CCCC(=O)Nc1ccc([N+](=O)[O-])cc1Cl [Compound 87]
IC50 (HeLa cells): > 100 µM

CCOC(=O)c1ccc(C=NO)[n+]([O-])c1 [Compound 88]
IC50 (HeLa cells): > 100 µM

NC(=N[N+](=O)[O-])N/N=C/c1ccc(-c2cccc([N+](=O)[O-])c2)o1 [Compound 89]
effect on ERK-mediated Rsk-1 phosphorylation (in words) [3]: most effective | effect on ERK-mediated Elk-1 phosphorylation (in words) [7]: most effective

CCOC(=O)c1ccc(NC(=S)NCCN2CCOCC2)cc1 [Compound 90]
IC50 (HeLa cells): > 100 µM

CC(Oc1ccc(C=C2NC(=S)NC2=O)cc1)C(=O)O (stereo not drawn) [Compound 91]
IC50 (HeLa cells): > 100 µM | effect on ERK-mediated Rsk-1 phosphorylation (in words) [3]: most effective

Cc1ccc(-c2nc(-c3cccc([N+](=O)[O-])c3)no2)c(Cl)c1 [Compound 93]
IC50 (HeLa cells): 5 to 10 µM | inhibition of colony formation / cancer cell proliferation (in words) (HeLa cells; compounds 86-98, colony formation assay (FIG. 7E)): most effective inhibitors | effect on ERK-mediated Elk-1 phosphorylation (in words) [7]: most effective | ERK2 fluorescence quenching / binding (in words) (ERK2): some quenching

COc1cc(C=C2NC(=O)NC2=O)ccc1OCc1ccc(Br)cc1 [Compound 95]
IC50 (HeLa cells): 10 to 25 µM | effect on ERK-mediated Rsk-1 phosphorylation (in words) [3]: most effective | effect on ERK-mediated Elk-1 phosphorylation (in words) [7]: most effective

COc1ccc(C(=O)Nc2ccc(OCC(=O)O)cc2)cc1 [Compound 96]
IC50 (HeLa cells): > 100 µM

O=C(CN1CCSCC1)NN=Cc1ccc(Br)s1 [Compound 97]
IC50 (HeLa cells): > 100 µM

NC(=O)COc1ccc(C=C2C(=O)NC(=S)NC2=O)cc1 [Compound 98]
IC50 (HeLa cells): > 100 µM
